Test results taken from article PMC11269933, “MAPK/ERK-PK(Ser11) pathway regulates divergent thermal metabolism of two congeneric oyster species” (iScience, 2024).

Assays:
CgPK [1] = target: T1, CgPK (Magallana gigas, UniProt Z9A5V8HWU5); experiment: SPR (BIAcore T200, CM5 chip, anti-His capture), […] Langmuir fit; assay type: binding; details: PBS-P+ analyte buffer, running buffer HBS-EP+ pH 7.5, mimics dephosphorylation
T1 construct: full-length CDS in pET-32a, 6xHis tags at N- and C-ends, expressed in E. coli; captured on CM5 chip by anti-His antibody

CgPK [2] = target: T1, CgPK; experiment: as above; assay type: binding; details: PBS-P+ analyte buffer, running buffer HBS-EP+ pH 7.5, recombinant from E. coli

Compound | Kd (CgPK [1]; ADP 1.25-10 uM) | Kd (CgPK [2]; ADP 1.25-10 uM) | Kd (CgPK [1]; PEP 100-1600 nM) | Kd (CgPK [2]; PEP 100-1600 nM)
Nc1ncnc2c1ncn2[C@@H]1O[C@H](COP(=O)(O)OP(=O)(O)O)[C@@H](O)[C@H]1O [ADP] | 72.5 nM | 41.7 nM | – | –
C=C(OP(=O)(O)O)C(=O)O [PEP] | – | – | 93.4 nM | 9.75 nM
